# Results published in the supplement of paper PMC4862054.
# What was measured:
# Details in all cases: incubation time: 72 h
# [1] = system: CAL-148; experiment: normalised viability (% of control), CellTiter-Blue; higher = more viable cells (about 100 = DMSO control)
# Protocol: (§1)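 DSRT, CellTiter-Blue viability, 72 h incubation. Signal is normalised to DMSO and benzethonium chloride controls. Value is the normalised response at dose 9.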
# [2] = system: CAL-85-1; experiment: as above
# Protocol: as §1
# [3] = system: DU-4475; experiment: as above
# Protocol: as §1
# [4] = system: HDQ-P1; experiment: as above
# Protocol: as §1
# [5] = system: BT-474; experiment: normalised viability (% of control), CellTiter-Blue; higher = more viable cells (100 = DMSO, 0 = benzethonium chloride kill control)
# Protocol: (§2)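 DSRT, CellTiter-Blue viability, 72 h incubation. Signal is normalised to DMSO and benzethonium chloride controls. Value is the normalised response at dose 1.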
# [6] = system: BT-549; experiment: as above
# Protocol: as §2
# [7] = system: CAL-120; experiment: as above
# Protocol: as §2
# [8] = system: CAL-148; experiment: as above
# Protocol: as §2
# [9] = system: CAL-51; experiment: as above
# Protocol: as §2
# [10] = system: CAL-85-1; experiment: as above
# Protocol: as §2
# [11] = system: DU-4475; experiment: as above
# Protocol: as §2
# [12] = system: HCC1143; experiment: as above
# Protocol: as §2
# [13] = system: HCC1599; experiment: as above
# Protocol: as §2
# [14] = system: HCC1937; experiment: as above
# Protocol: as §2
# [15] = system: HDQ-P1; experiment: as above
# Protocol: as §2
# [16] = system: Hs578T; experiment: as above
# Protocol: as §2
# [17] = system: MDA-MB-231; experiment: as above
# Protocol: as §2
# [18] = system: MDA-MB-436; experiment: as above
# Protocol: as §2
# [19] = system: MDA-MB-453; experiment: as above
# Protocol: as §2
# [20] = system: MDA-MB-468; experiment: as above
# Protocol: as §2
# [21] = system: MFM-223; experiment: as above
# Protocol: as §2
# [22] = system: SK-BR-3; experiment: as above
# Protocol: as §2
# [23] = system: BT-474; experiment: drug sensitivity score (DSS), CellTox Green (DSS (AUC-based score)); higher = stronger drug effect (viability inhibition or cytotoxicity); extreme values may be limits of the assay
# Summary of the method: (§3)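 The drug sensitivity score reflects the area under a fitted dose-response curve. To obtain it, breast cancer cells in 20 µl suspension were seeded into 384-well plates containing compound at 5 concentrations, 10-fold apart over a compound-specific 10,000-fold range, and incubated 72 h. CellTox Green fluorescence (485/520 nm) was read first and CellTiter-Glo luminescence second, after 10 min at room temperature. Each plate was normalised to 0.1 % DMSO and a positive kill control.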
# [24] = system: CAL-120; experiment: as above
# Summary of the method: as §3
# [25] = system: HCC1599; experiment: as above
# Summary of the method: as §3
# [26] = system: HCC1937; experiment: as above
# Summary of the method: as §3
# [27] = system: HDQ-P1; experiment: as above
# Summary of the method: as §3
# [28] = system: MCF-10A; experiment: as above
# Summary of the method: as §3
smiles,measurement,setting,value
C[C@]12CC[C@H](O)CC1=CC[C@@H]1[C@@H]2CC[C@]2(C)C(c3cccnc3)=CC[C@@H]12 [Abiraterone],normalised viability,[1]; 5000 nM,92.1%
same,normalised viability,[2]; 5000 nM,82.1%
same,normalised viability,[3]; 5000 nM,93.3%
same,normalised viability,[4]; 5000 nM,113%
same,normalised viability,[5]; 0.5 nM,86.1%
same,normalised viability,[6]; 0.5 nM,111%
same,normalised viability,[7]; 0.5 nM,78.9%
same,normalised viability,[8]; 0.5 nM,103%
same,normalised viability,[9]; 0.5 nM,97.6%
same,normalised viability,[10]; 0.5 nM,82.8%
same,normalised viability,[11]; 0.5 nM,99.4%
same,normalised viability,[12]; 0.5 nM,86.6%
same,normalised viability,[13]; 0.5 nM,102%
same,normalised viability,[14]; 0.5 nM,99.8%
same,normalised viability,[15]; 0.5 nM,109%
same,normalised viability,[16]; 0.5 nM,95.3%
same,normalised viability,[17]; 0.5 nM,96%
same,normalised viability,[18]; 0.5 nM,114%
same,normalised viability,[19]; 0.5 nM,108%
same,normalised viability,[20]; 0.5 nM,102%
same,normalised viability,[21]; 0.5 nM,90.2%
same,normalised viability,[22]; 0.5 nM,96.1%
same,drug sensitivity score,[23],0
same,drug sensitivity score,[24],0
same,drug sensitivity score,[25],0
same,drug sensitivity score,[26],0
same,drug sensitivity score,[27],0
same,drug sensitivity score,[28],0
CNNCc1ccc(C(=O)NC(C)C)cc1 [Procarbazine],normalised viability,[1]; 10000 nM,97%
same,normalised viability,[2]; 10000 nM,85.1%
same,normalised viability,[3]; 10000 nM,85%
same,normalised viability,[4]; 10000 nM,124%
same,normalised viability,[5]; 1 nM,92.5%
same,normalised viability,[6]; 1 nM,113%
same,normalised viability,[7]; 1 nM,97%
same,normalised viability,[8]; 1 nM,108%
same,normalised viability,[9]; 1 nM,100%
same,normalised viability,[10]; 1 nM,92.4%
same,normalised viability,[11]; 1 nM,110%
same,normalised viability,[12]; 1 nM,103%
same,normalised viability,[13]; 1 nM,84.6%
same,normalised viability,[14]; 1 nM,78.9%
same,normalised viability,[15]; 1 nM,120%
same,normalised viability,[16]; 1 nM,107%
same,normalised viability,[17]; 1 nM,112%
same,normalised viability,[18]; 1 nM,99.3%
same,normalised viability,[19]; 1 nM,110%
same,normalised viability,[20]; 1 nM,104%
same,normalised viability,[21]; 1 nM,102%
same,normalised viability,[22]; 1 nM,106%
same,drug sensitivity score,[23],0
same,drug sensitivity score,[24],0
same,drug sensitivity score,[25],0
same,drug sensitivity score,[26],1.67
same,drug sensitivity score,[27],0
same,drug sensitivity score,[28],0
Cn1c(=O)n(-c2ccc(C(C)(C)C#N)cc2)c2c3cc(-c4cnc5ccccc5c4)ccc3ncc21 [Dactolisib],drug sensitivity score,[23],0
same,drug sensitivity score,[24],0
same,drug sensitivity score,[25],0
same,drug sensitivity score,[26],7.09
same,drug sensitivity score,[27],0
same,drug sensitivity score,[28],0
Nc1nc(OCc2cc(Br)cs2)c2[nH]cnc2n1 [Lomeguatrib],drug sensitivity score,[23],0
same,drug sensitivity score,[24],0
same,drug sensitivity score,[25],0
same,drug sensitivity score,[26],1.11
same,drug sensitivity score,[27],0
same,drug sensitivity score,[28],0
COc1ccc(-c2ccc3c(N4CCOC[C@@H]4C)nc(N4CCOC[C@@H]4C)nc3n2)cc1CO [AZD8055],normalised viability,[1]; 10000 nM,3.64%
same,normalised viability,[2]; 10000 nM,18.8%
same,normalised viability,[3]; 10000 nM,8.6%
same,normalised viability,[4]; 10000 nM,22.7%
same,normalised viability,[5]; 1 nM,103%
same,normalised viability,[6]; 1 nM,106%
same,normalised viability,[7]; 1 nM,93.2%
same,normalised viability,[8]; 1 nM,94.6%
same,normalised viability,[9]; 1 nM,94%
same,normalised viability,[10]; 1 nM,96.2%
same,normalised viability,[11]; 1 nM,103%
same,normalised viability,[12]; 1 nM,98.2%
same,normalised viability,[13]; 1 nM,97.8%
same,normalised viability,[14]; 1 nM,102%
same,normalised viability,[15]; 1 nM,104%
same,normalised viability,[16]; 1 nM,105%
same,normalised viability,[17]; 1 nM,98.3%
same,normalised viability,[18]; 1 nM,113%
same,normalised viability,[19]; 1 nM,89.3%
same,normalised viability,[20]; 1 nM,109%
same,normalised viability,[21]; 1 nM,93%
same,normalised viability,[22]; 1 nM,103%
same,drug sensitivity score,[23],2.99
same,drug sensitivity score,[24],0
same,drug sensitivity score,[25],0
same,drug sensitivity score,[26],0
same,drug sensitivity score,[27],0
same,drug sensitivity score,[28],0
Cc1cc2c(C(C)C)c(O)c(O)c(C=O)c2c(O)c1-c1c(C)cc2c(C(C)C)c(O)c(O)c(C=O)c2c1O [Gossypol],normalised viability,[1]; 100000 nM,3.73%
same,normalised viability,[2]; 100000 nM,3.4%
same,normalised viability,[3]; 100000 nM,4.97%
same,normalised viability,[4]; 100000 nM,4.15%
CC(C)c1c(C(=O)Nc2ccccc2)c(-c2ccccc2)c(-c2ccc(F)cc2)n1CC[C@@H](O)C[C@@H](O)CC(=O)O [Atorvastatin],drug sensitivity score,[23],0
same,drug sensitivity score,[24],1.49
same,drug sensitivity score,[25],0
same,drug sensitivity score,[26],0
same,drug sensitivity score,[27],0
same,drug sensitivity score,[28],8.07
Cn1c(=O)n(-c2ccc(C(C)(C)C#N)cc2)c2c3cc(-c4cnc5ccccc5c4)ccc3ncc21 [NVP-BEZ235],normalised viability,[1]; 1000 nM,0.2%
same,normalised viability,[2]; 1000 nM,27.7%
same,normalised viability,[3]; 1000 nM,5.52%
same,normalised viability,[4]; 1000 nM,34%
same,normalised viability,[5]; 0.1 nM,105%
same,normalised viability,[6]; 0.1 nM,112%
same,normalised viability,[7]; 0.1 nM,96.6%
same,normalised viability,[8]; 0.1 nM,114%
same,normalised viability,[9]; 0.1 nM,102%
same,normalised viability,[10]; 0.1 nM,96.9%
same,normalised viability,[11]; 0.1 nM,129%
same,normalised viability,[12]; 0.1 nM,98.9%
same,normalised viability,[13]; 0.1 nM,125%
same,normalised viability,[14]; 0.1 nM,95.9%
same,normalised viability,[15]; 0.1 nM,113%
same,normalised viability,[16]; 0.1 nM,105%
same,normalised viability,[17]; 0.1 nM,111%
same,normalised viability,[18]; 0.1 nM,119%
same,normalised viability,[19]; 0.1 nM,96.8%
same,normalised viability,[20]; 0.1 nM,108%
same,normalised viability,[21]; 0.1 nM,99.3%
same,normalised viability,[22]; 0.1 nM,100%
